Assay results reported in the NIST ThermoML archive (doi:10.1007/s10765-007-0223-x).

Assay: xn = mol fraction of the nth substance listed
Settings: 101 kPa, Liquid; for speed of sound: Single path-length method

COC(C)(C)C [2-methoxy-2-methylpropane] + Cc1ccccc1
Settings	mass density [kg/m3]	speed of sound [m/s]
288.15 K, x1 = 0.053	864.558	1332.9
288.15 K, x1 = 0.116	856.488	1315.9
288.15 K, x1 = 0.199	845.884	1295.2
288.15 K, x1 = 0.301	832.848	1268.1
288.15 K, x1 = 0.371	824.068	1249.5
288.15 K, x1 = 0.463	812.346	1225.8
288.15 K, x1 = 0.61	793.998	1186.3
288.15 K, x1 = 0.688	784.329	1166
288.15 K, x1 = 0.797	770.803	1137.3
288.15 K, x1 = 0.902	757.81	1108.5
288.15 K, x1 = 0.943	752.561	1097.5
288.15 K, x1 = 1	744.861	1083.4
290.65 K, x1 = 0.053	862.236	1321.9
290.65 K, x1 = 0.116	854.153	1304.8
290.65 K, x1 = 0.199	843.533	1284.2
290.65 K, x1 = 0.301	830.472	1257.4
290.65 K, x1 = 0.371	821.675	1238.5
290.65 K, x1 = 0.463	809.929	1215
290.65 K, x1 = 0.61	791.542	1175.6
290.65 K, x1 = 0.688	781.848	1155
290.65 K, x1 = 0.797	768.289	1126.6
290.65 K, x1 = 0.902	755.262	1098.2
290.65 K, x1 = 0.943	750	1086.8
290.65 K, x1 = 1	742.259	1071.6
293.15 K, x1 = 0.053	859.905	1310.9
293.15 K, x1 = 0.116	851.805	1293.8
293.15 K, x1 = 0.199	841.167	1273.2
293.15 K, x1 = 0.301	828.083	1246.4
293.15 K, x1 = 0.371	819.27	1227.5
293.15 K, x1 = 0.463	807.497	1203.9
293.15 K, x1 = 0.61	789.068	1164.7
293.15 K, x1 = 0.688	779.352	1143.9
293.15 K, x1 = 0.797	765.757	1115.7
293.15 K, x1 = 0.902	752.693	1087.4
293.15 K, x1 = 0.943	747.415	1075.9
293.15 K, x1 = 1	739.654	1060
295.65 K, x1 = 0.053	857.569	1299.9
295.65 K, x1 = 0.116	849.458	1282.8
295.65 K, x1 = 0.199	838.799	1262.2
295.65 K, x1 = 0.301	825.688	1235.4
295.65 K, x1 = 0.371	816.857	1216.5
295.65 K, x1 = 0.463	805.058	1193
295.65 K, x1 = 0.61	786.587	1153.6
295.65 K, x1 = 0.688	776.847	1132.8
295.65 K, x1 = 0.797	763.216	1104.9
295.65 K, x1 = 0.902	750.116	1076.7
295.65 K, x1 = 0.943	744.822	1064.8
295.65 K, x1 = 1	737.036	1048.5
298.15 K, x1 = 0.053	855.229	1288.9
298.15 K, x1 = 0.116	847.105	1271.8
298.15 K, x1 = 0.199	836.426	1251.2
298.15 K, x1 = 0.301	823.289	1224.5
298.15 K, x1 = 0.371	814.439	1205.5
298.15 K, x1 = 0.463	802.616	1181.8
298.15 K, x1 = 0.61	784.1	1142.6
298.15 K, x1 = 0.688	774.335	1122
298.15 K, x1 = 0.797	760.667	1093.8
298.15 K, x1 = 0.902	747.528	1065.7
298.15 K, x1 = 0.943	742.221	1053.5
298.15 K, x1 = 1	734.406	1036.9
300.65 K, x1 = 0.053	852.886	1278.1
300.65 K, x1 = 0.116	844.749	1260.8
300.65 K, x1 = 0.199	834.049	1240.2
300.65 K, x1 = 0.301	820.886	1213.6
300.65 K, x1 = 0.371	812.02	1194.5
300.65 K, x1 = 0.463	800.168	1170.8
300.65 K, x1 = 0.61	781.607	1131.6
300.65 K, x1 = 0.688	771.814	1111.4
300.65 K, x1 = 0.797	758.108	1082.6
300.65 K, x1 = 0.902	744.931	1054.4
300.65 K, x1 = 0.943	739.606	1042.1
300.65 K, x1 = 1	731.766	1025.4
303.15 K, x1 = 0.053	850.544	1267.3
303.15 K, x1 = 0.116	842.388	1250
303.15 K, x1 = 0.199	831.668	1229.3
303.15 K, x1 = 0.301	818.477	1202.6
303.15 K, x1 = 0.371	809.592	1183.6
303.15 K, x1 = 0.463	797.712	1159.8
303.15 K, x1 = 0.61	779.104	1120.6
303.15 K, x1 = 0.688	769.287	1100.2
303.15 K, x1 = 0.797	755.539	1071.4
303.15 K, x1 = 0.902	742.321	1043.1
303.15 K, x1 = 0.943	736.98	1030.7
303.15 K, x1 = 1	729.112	1013.9
305.65 K, x1 = 0.053	–	1256.5
305.65 K, x1 = 0.116	–	1239.1
305.65 K, x1 = 0.199	–	1218.4
305.65 K, x1 = 0.301	–	1191.7
305.65 K, x1 = 0.371	–	1172.6
305.65 K, x1 = 0.463	–	1148.8
305.65 K, x1 = 0.61	–	1109.7
305.65 K, x1 = 0.688	–	1089
305.65 K, x1 = 0.797	–	1060.2
305.65 K, x1 = 0.902	–	1031.7
305.65 K, x1 = 0.943	–	1019.3
305.65 K, x1 = 1	–	1002.4
